# Earlier results as cited in article PMC4741275 (Analytical Chemistry, 2016).
# System: lysosomes
row,Structure (SMILES),enrichment in lysosomes
1,Cc1cn(-c2cc(NC(=O)c3ccc(C)c(Nc4nccc(-c5cccnc5)n4)c3)cc(C(F)(F)F)c2)cn1 [nilotinib],over 1000 fold
2,Cc1ccc(NC(=O)c2ccc(CN3CCN(C)CC3)cc2)cc1Nc1nccc(-c2cccnc2)n1 [imatinib],over 1000 fold
